Measurements reported in US20180280480A1, “COMPOSITIONS AND PEPTIDES HAVING DUAL GLP-1R AND GLP-2R AGONIST ACTIVITY” (priority 2014, published 2018).
Numbered stars: 1 amine (or outer) side, 2 acyl side, 3 side chain; on linkers, the order of the positions; unused ones are H or OH. Side chains are listed from the residue outwards. Ends that are not written are not given here. * marks the point of attachment. γGlu = O=C(O)[C@H](CCC(=O)[*:2])N[*:1]; Palmitoyl = CCCCCCCCCCCCCCCC(=O)*

T1: human GLP-2 receptor (human, UniProt O95838 1-553, limits assumed)
T1 sequence (looked up): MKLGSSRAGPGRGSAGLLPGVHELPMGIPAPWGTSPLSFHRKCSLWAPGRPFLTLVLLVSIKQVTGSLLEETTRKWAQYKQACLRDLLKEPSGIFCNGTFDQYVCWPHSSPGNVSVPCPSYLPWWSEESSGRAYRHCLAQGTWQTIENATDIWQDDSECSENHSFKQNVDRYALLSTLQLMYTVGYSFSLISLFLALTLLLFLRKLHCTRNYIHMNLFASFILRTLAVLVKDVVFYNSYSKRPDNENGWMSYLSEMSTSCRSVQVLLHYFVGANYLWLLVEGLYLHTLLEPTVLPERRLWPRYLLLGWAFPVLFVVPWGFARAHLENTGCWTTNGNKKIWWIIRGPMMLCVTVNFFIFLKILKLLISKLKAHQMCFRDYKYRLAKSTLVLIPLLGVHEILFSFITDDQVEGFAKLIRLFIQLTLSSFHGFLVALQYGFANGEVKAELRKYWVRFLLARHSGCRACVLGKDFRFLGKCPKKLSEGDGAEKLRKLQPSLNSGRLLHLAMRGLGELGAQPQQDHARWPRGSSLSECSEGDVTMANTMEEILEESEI


How the values were obtained:
C57BL/6J mice [1] = test: Acute food intake in C57BL/6J mice; assay type: in vivo; conditions: for Total food intake (g/animal): Day 0: 0-[…] (lights off), mean ± SEM
Description: The C57BL/6J mice arrived 7 days prior to the initiation of the study. During these days, animals were handled daily to accustom them to the experimental paradigm. At Day −1, the mice were randomised according to body weight to participate in one of following drug treatment groups (n=6-8 in each group): Group 1: vehicle. […] Group 3-5: SEQ ID NO 3; 3.0; 1.0; 0.3 mg/kg. Group 6-8: SEQ ID NO 4; 3.0; 1.0; 0.3 mg/kg. Group 9-11: SEQ ID NO 5; 3.0; 1.0; 0.3 mg/kg. Group 12-14: SEQ ID NO 6; 3.0; 1.0; 0.3 mg/kg. Group 15-17: SEQ ID NO 7; 3.0; 1.0; 0.3 mg/kg. Three days prior to initiation of dosing, all animals were handled daily and accustomed to the experimental conditions by subcutaneous mock injections (i.e. nipping the skin of the back). Baseline food intake was monitored four days prior to the study. Mice were randomized according to body weight on Day −1. Animals were subjected to two separate injections. First acute dose was administered prior to lights out at Day 0 and food intake was monitored 24 hours post dosing. On Day 3, mice were re-randomised into new treatment groups and dosed prior to lights out. Food intake was monitored 24 hours post dosing. Body weight was measured daily from Day −5 and throughout the study. The study was terminated on Day 5. […] Dosing took place prior to lights out in the afternoon (between 13.30 and 14.00). Doses were administered subcutaneously (dose volume 5 ml/kg). Food intake data was collected using the HM-2 system, an online computerized feeding system using digital weighing cells. Food intake and body weight were measured from Day −7 and throughout the study. […]

C57BL/6J mice [2] = test: GLP1R-GLP2R dual agonist compound study: cumulative food intake; assay type: in vivo
Text: Forty (40, n=10, 4 groups) male C57BL/6J mice obtained from Taconic, Denmark, were used. At the time of the experiment, the mice had reached an age of 9-10 weeks. The mice were acclimatized for one week in their new environment and offered regular chow diet (Altromin 1324, Brogaarden A/S, Denmark) and domestic quality tap water. Animals were housed two per cage during the study, in a light-, temperature-, and humidity-controlled room (12-hour light: 12-hour dark cycle, lights on/off at 4 AM/4 PM hour; 22±1° C.; 50±10% relative humidity). […] Animals were uniquely identified with implantable microchips (Pet ID Microchip, E-vet) in all mice upon arrival. Animals were identified using the WS-2 weight station (MBrose ApS, Faaborg, Denmark) connected to a laptop running the HM02Lab software (Ellegaard Systems, Faaborg, Denmark). The HM02Lab software matches the body weight with ID and calculates the dose directly based on the body weight. All mice were handled for 3 days prior to the experiment to acclimatize the animals to handling and injections.

C57BL/6J mice [3] = test: GLP1R-GLP2R dual agonist compound study: oral glucose tolerance test; assay type: in vivo
Description: On day 7, an oral glucose tolerance test (OGTT) was performed. Animals were mildly fasted as all food was removed 4 hours prior to the oral glucose load. Vehicle (SC) and compounds were administered subcutaneously (SC) 2 hours prior to the OGTT. At t=0 mice received an oral glucose load (2 g/kg; 4 ml/kg; 500 mg/ml, Fresenius Kabi, Sweden). Glucose was given as gavage via a gastrically-placed tube connected to a syringe ensuring accurate dosing. Blood glucose was measured from tail vein blood before glucose (at t=−120 and 0 min, baseline) and after glucose administration at t=15, 30, 60 and 120 min. Blood samples (tail vein) was collected into 10 μl heparinized glass capillary tubes and immediately suspended in buffer (0.5 ml of glucose/lactate system solution (EKF-diagnostics, Germany) and analyzed for glucose on the test day using a BIOSEN c-Line glucose meter (EKF-diagnostics, Germany) according to manufacturer's instructions. Results from the OGTT are listed below in Table 11.

C57BL/6J mice [4] = test: GLP1R-GLP2R dual agonist compound study: gut wet weight; assay type: in vivo
Text: On study day 8, the mice were terminated and the GI tract was removed for determination of the gut wet weight. The gut wet weight results are listed below in Table 12.

lean NMRI mice = test: Acute effect on food intake in lean NMRI mice; assay type: in vivo; conditions: for Cumulative food intake following administration of a single dose: 50 nmol/kg s.c., mean ± S.E.M.
Description: All animals were housed in groups of four. The animal room environment were controlled (targeted ranges: temperature 22±2° C.; relative humidity 50±10%; light/dark cycle: 12 hours light, 12 hours dark, lights off from 14.00 to 02.00 hours). The mice had ad libitum access to Altromin (Brogaarden, Denmark) and tap water. Mice arrived 5 days prior to the initiation of the study and were transferred to the HM-2 system. From arrival day no food was provided in the cages thereby forcing the animals to learn to eat from the food channels thus habituating the animals faster to the HM-2 system. Food intake and body weight were measured from day −3 and throughout the study. Food intake data were collected using the HM-2 real-time food intake monitoring system, an online computerized feeding system using digital weighing cells. As the animals were uniquely identified with microchips, each individual mouse was identified by its corresponding microchip upon entry and exit from the food channel. The HM-2 system continuously and in real-time mode monitored feeding activity in two independent channels and recorded the start and finishing time of each meal and the amount of food consumed by each animal within the selected time interval without human intervention. The net food intake was calculated by the HM-2 control unit software (HMLab, MBRose, Faaborg, Denmark).
Doses were administered subcutaneously (dose volume 5 ml/kg), in the lower back region. Food intake was measured up to 68 hours following the dosing of the animals.

lean C57BL/6J mice = test: Sub-acute effect on body weight in lean C57BL/6J mice; assay type: in vivo; conditions: for Body weight change in percent to baseline body weight: 50 nmol/kg BID SC, mean ± S.E.M.
Description: Eighteen (18) male C57/BL6J mice obtained from Janvier, France, were used. At the time of experimentation the mice had reached an age of 9 weeks. The mice were acclimatized for one week in their new environment and offered regular chow diet (Altromin 1324, Brogaarden A/S, Denmark) and domestic quality tap water. Animals were housed six per cage during the study, in a light-, temperature-, and humidity-controlled room (12-hour light:12-hour dark cycle, lights on/off at 4 AM/4 PM hour; 22±1° C.; 50±10% relative humidity).
Dosing volume was 5 ml/kg, SC.
The compounds were dissolved in PBS buffer containing 0.1% BSA, pH 7.4. The subcutaneous injections were placed at the lower back. All mice were handled for 3 days prior to experimentation to acclimatize the animals to handling and injections.

human GLP-1 receptor = human GLP-1 receptor (human, UniProt P43220 24-463, limits assumed); test: cell-based or functional assay
human GLP-2 receptor = biological target: T1, human GLP-2 receptor; test: cell-based or functional assay

Row | GLP-1R, EC50 (human GLP-1 receptor) | GLP-2R, EC50 (human GLP-2 receptor) | Molecule | Total food intake (g/animal) (C57BL/6J mice [1]; single SC dose 0.3 mg/kg) | Total food intake (g/animal) (C57BL/6J mice [1]; single SC dose 1 mg/kg) | Total food intake (g/animal) (C57BL/6J mice [1]; single SC dose 3 mg/kg) | other results
1 |  |  | HGDGSFTSELSTYLDNLAARDFINWLIQTKITD-NH2 (C-terminus assumed) [SEQ ID NO 7, R^1-HGDGSFTSELSTYLDNLAARDFINWLIQTKITDR^2] | 1.05 ± 0.41 g/animal | 0.47 ± 0.08 g/animal | 0.28 ± 0.12 g/animal | food intake after […] compared to vehicle (C57BL/6J mice [1]; single dose 1-3 mg/kg): significantly reduced food intake
2 |  |  | R^1-HGDGSFTDELSTYLDALAARDFIAWLIQTKR^2 [SEQ ID NO 3] | 0.76 ± 0.37 g/animal | 0.66 ± 0.15 g/animal | 0.30 ± 0.08 g/animal | Cumulative food intake (C57BL/6J mice [2]; Day 0-7, 3.0 mg/kg BID SC, mean ± S.E.M.): 26.03 ± 2.49 g; cumulative food intake compared to vehicle and teduglutide (C57BL/6J mice [2]; dosed twice daily for 7 days): considerably reduced cumulative food intake; Oral glucose tolerance test AUC, 0-120 min (C57BL/6J mice [3]; Day 7, 3.0 mg/kg BID SC, glucose 2 g/kg oral, mean ± S.E.M.): 503 ± 97 mmol·min/L; blood glucose compared to vehicle and teduglutide (C57BL/6J mice [3]; dosed twice daily for 7 days): significantly reduced fasting blood glucose; Gut wet weight (C57BL/6J mice [4]; Day 8, 3.0 mg/kg BID SC, mean ± S.E.M.): 3.3 ± 0.2 g; gut wet weight compared to vehicle and teduglutide (C57BL/6J mice [4]; dosed twice daily for 8 days): significantly increased the gut wet weight
3 |  |  | R^1-HGDGSFTDELSTYLDNLAARDFIAWLIQTKITDR^2 [SEQ ID NO 5] | 0.69 ± 0.19 g/animal | 0.83 ± 0.18 g/animal | 0.26 ± 0.08 g/animal | 
4 |  |  | R^1-HGDGSFTSELSTYLDALAARDFINWLIQTKR^2 [SEQ ID NO 4] | 0.93 ± 0.06 g/animal | 0.79 ± 0.15 g/animal | 0.25 ± 0.08 g/animal | 
5 |  |  | R^1-H-G-D-G-S-F-T-S-E-L-S-T-Y-[K(C16-yE-)]-DALAARDFIAWLIQTKITDR^2 [SEQ ID NO 23] |  |  |  | acute food intake compared to vehicle (lean NMRI mice; 12 and 24 hours after single dose of 50 nmol/kg): significantly reduce acute food intake to an similar extend as liraglutide; Cumulative food intake following administration of a single dose (lean NMRI mice; 12 h after dosing): 1.82 ± 0.24 grams pr mice; Cumulative food intake following administration of a single dose (lean NMRI mice; 24 h after dosing): 2.83 ± 0.22 grams pr mice; Cumulative food intake following administration of a single dose (lean NMRI mice; 60 h after dosing): 11.43 ± 1.97 grams pr mice; food intake compared to vehicle (lean NMRI mice; 60 hours after single dose of 50 nmol/kg): tends to still have an effect; effect on body weight (lean C57BL/6J mice; 50 nmol/kg, after two days of administration, sustained up to seven days): significantly reduced the body weight; Body weight change in percent to baseline body weight (lean C57BL/6J mice; Day 0): 100.0 ± 0.0%; Body weight change in percent to baseline body weight (lean C57BL/6J mice; Day 2): 90.7 ± 0.8 %; Body weight change in percent to baseline body weight (lean C57BL/6J mice; Day 5): 89.5 ± 1.8 %; Body weight change in percent to baseline body weight (lean C57BL/6J mice; Day 7): 90.8 ± 1.4 %
6 | 0.543 nM | 6.61 nM | HGDGSFTSELSK([γGlu-Palmitoyl])YLDALAARDFIAWLIQTKITD [SEQ ID NO 22] |  |  |  | 
7 | 0.319 nM | 1.93 nM | HGDGSFTSELSTYLDAK([γGlu-Palmitoyl])AARDFIAWLIQTKITD [SEQ ID NO 25] |  |  |  | 
8 | 0.169 nM | 1.06 nM | HGDGSFTSELSTYK([γGlu-Palmitoyl])DALAARDFIAWLIQTKITD [SEQ ID NO 23] |  |  |  | 
9 | 0.658 nM | > 100 nM | HGDGSFTSELSTYLDALAAK([γGlu-Palmitoyl])DFIAWLIQTKITD [SEQ ID NO 26] |  |  |  | 
10 | 0.338 nM | 5.6 nM | HGDGSFTSELSTYLDK([γGlu-Palmitoyl])LAARDFIAWLIQTKITD [SEQ ID NO 24] |  |  |  | 
11 | > 10 nM | 4.25 nM | HGDGSFTSELK([γGlu-Palmitoyl])TYLDALAARDFIAWLIQTKITD [SEQ ID NO 21] |  |  |  | 
12 | > 10 nM | > 100 nM | HGDGSFK([γGlu-Palmitoyl])SELSTYLDALAARDFIAWLIQTKITD [SEQ ID NO 19] |  |  |  | 
